Assay results as given in patent US9868717B2, “Tricyclic sulphonamide compounds and methods of making and using same” (Zafgen, Inc., priority 2012, dated 2018).

Target: T1, Human recombinant MetAP2 (Homo sapiens, UniProt P50579)
T1 construct: made in house; host or cells: Sf9 insect cells
Assay: inhibition of recombinant human MetAP2 activity (MAS substrate, amino acid oxidase/Amplex red fluorescence)
Assay type: biochemical
Conditions: manganese enzyme, 30 minutes at 25° C., pH 7.5, 0.75 mM MAS substrate, 1% DMSO
Description: Compounds are tested for their capacity to inhibit recombinant human MetAP2 activity using the following assay.
Human recombinant MetAP2 expressed in Sf9 cells followed by affinity purification and EDTA treatment to remove endogenous active site cation was dialysed against MnCl2 to produce the manganese enzyme used in the assay. The assay was carried out for 30 minutes at 25° C. in 50 mM HEPES buffer containing 100 mM NaCl, pH 7.5 the presence of 0.75 mM Methionine-Alanine-Serine (MAS) substrate and 50 μg/ml amino acid oxidase using a dilution of purified MetAP2 giving >3-fold signal:noise. Cleavage of the substrate by MetAP2 and oxidation of free methionine by amino acid oxidase was detected and quantified using fluorescence generated by Amplex red (10-acetyl-3,7-dihydroxyphenoxazine) in combination with horseradish peroxidase which detects H2O2 released during the oxidation step. The fluorescent signal was detected using a multiwell fluorimeter. Compounds were diluted in DMSO prior to addition to assay buffer, the final DMSO concentration in the assay being 1%.
The IC50 is defined as the concentration at which a given compound achieves 50% inhibition of control. IC50 values are calculated using the XLfit software package (version 2.0.5).

T1 sequence (P50579 whole entry): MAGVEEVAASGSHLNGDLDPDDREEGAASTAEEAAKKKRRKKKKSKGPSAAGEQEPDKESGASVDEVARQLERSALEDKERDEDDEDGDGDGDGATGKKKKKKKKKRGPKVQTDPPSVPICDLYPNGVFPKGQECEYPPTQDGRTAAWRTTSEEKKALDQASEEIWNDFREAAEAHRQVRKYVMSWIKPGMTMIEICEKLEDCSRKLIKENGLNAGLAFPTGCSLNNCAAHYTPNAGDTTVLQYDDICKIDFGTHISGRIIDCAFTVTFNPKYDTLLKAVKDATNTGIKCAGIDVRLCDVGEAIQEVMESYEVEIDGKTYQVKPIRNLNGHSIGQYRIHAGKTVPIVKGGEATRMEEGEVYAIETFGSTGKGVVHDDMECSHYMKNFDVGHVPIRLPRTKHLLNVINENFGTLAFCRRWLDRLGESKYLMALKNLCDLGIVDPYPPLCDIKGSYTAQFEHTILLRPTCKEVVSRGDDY

Which IC50 does the source give for `O=C(O)c1c(NS(=O)(=O)c2ccc(F)cc2C2CC2CN2CCCC2)ccc2c1OC[C@@H]1C[C@H]21` (stereo partly drawn) [Example 4, (1aR,7bS)-5-{4-Fluoro-2-[2-(pyrrolidin-1-ylmethyl)cyclopropyl]benzene-sulfonylamino}-1,1a,2,7b-tetrahydrocyclopropa[c]chromene-4-carboxylic acid] here?
The IC50 was 50 to 500 nM.

`O=C(O)c1c(NS(=O)(=O)c2ccc(F)cc2/C=C\CN2CCC(O)CC2)ccc2c1OC[C@@H]1C[C@H]21` [Example 21, (1aR,7bS)-5{4-Fluoro-2-[(Z)-3-(4-hydroxypiperidin-1-yl)prop-1-enyl]benzenesulfonylamino}-1,1a,2,7b-tetrahydrocyclopropa[c]chromene-4-carboxylic acid] was tested. Which IC50 did it give?
The IC50 was 50 to 500 nM.

How did the IC50 turn out when `CCN1CCC(NC(=O)Cc2cc(F)ccc2S(=O)(=O)Nc2ccc3c(c2C(=O)O)OC[C@@H]2C[C@H]32)C1` (stereo in doubt) [Example 30, (1aR,7bS)-5-{2-[((S)-1-Ethylpyrrolidin-3-ylcarbamoyl)methyl]-4-fluoro-benzenesulfonylamino}-1,1a,2,7b-tetrahydrocyclopropa[c]chromene-4-carboxylic acid] was run?
The IC50 was < 50 nM.

How did the IC50 turn out when `CCN1CC[C@@H](NCCc2cc(F)ccc2S(=O)(=O)Nc2ccc3c(c2C(=O)O)OC[C@@H]2C[C@H]32)C1` [Example 33, (1aR,7bS)-5-{2-[2-((R)-1-ethylpyrrolidin-3-ylamino)ethyl]-4-fluoro-benzene-sulfonylamino}-1,1a,2,7b-tetrahydrocyclopropa[c]chromene-4-carboxylic acid-formic acid (1:1)] was run?
The IC50 was < 50 nM.

`CC(C)(O)CN1CC[C@@H](Cc2cc(F)ccc2S(=O)(=O)Nc2ccc3c(c2C(=O)O)OC[C@@H]2C[C@H]32)C1` [Example 8, (1aR,7bS)-5-{4-Fluoro-2-[(R)-1-(2-hydroxy-2-methylpropyl)pyrrolidin-3-ylmethyl]benzenesulfonylamino}-1,1a,2,7b-tetrahydrocyclopropa[c]chromene-4-carboxylic acid] was tested. Which IC50 did it give?
Its IC50 is < 50 nM.

With `CCN1CCCC(Cc2cc(F)ccc2S(=O)(=O)Nc2ccc3c(c2C(=O)O)OCC2CC32)C1` (single isomer, unassigned) [Example 15] as the molecule, how does the IC50 read?
The IC50 was < 50 nM.

Which IC50 does the source give for `CC1(O)CCN(C/C=C\c2cc(F)ccc2S(=O)(=O)Nc2ccc3c(c2C(=O)O)OC[C@@H]2C[C@H]32)CC1` [Example 22, (1aR,7bS)-5-{4-Fluoro-2-[(Z)-3-(4-hydroxy-4-methylpiperidin-1-yl)prop-1-enyl]benzenesulfonylamino}-1,1a,2,7b-tetrahydrocyclopropa[c]chromene-4-carboxylic acid] here?
The IC50 was 50 to 500 nM.

For `CCN1CC[C@@H](Cc2ccccc2S(=O)(=O)Nc2ccc3c(c2C(=O)O)OC[C@@H]2C[C@H]32)C1` [Example 31, (1aR,7bS)-5-[2-((3R)-1-Ethylpyrrolidin-3-ylmethyl)benzenesulfonylamino]-1,1a,2,7b-tetrahydrocyclopropa[c]chromene-4-carboxylic acid], which IC50 is on record?
The IC50 was < 50 nM.

With `O=C(O)c1c(NS(=O)(=O)c2ccc(F)cc2/C=C\[C@@H]2CCCN2)ccc2c1OC[C@@H]1C[C@H]21` [Example 24, (1aR,7bS)-5-{4-Fluoro-2-[(Z)-2-((S)-pyrrolidin-2-yl)ethenyl]benzenesulfonyl-amino}-1,1a,2,7b-tetrahydrocyclopropa[c]chromene-4-carboxylic acid] as the molecule, how does the IC50 read?
Its IC50 is < 50 nM.

With `CCN1CCC/C(=C\c2cc(F)ccc2S(=O)(=O)Nc2ccc3c(c2C(=O)O)OC[C@@H]2C[C@H]32)C1` (single isomer, unassigned) [Example 12] as the molecule, how does the IC50 read?
Its IC50 is < 50 nM.

Same assay, conditions: manganese enzyme, 30 minutes at 25° C., pH 7.5, 0.75 mM MAS substrate, 1% DMSO; listed as First eluting enantiomer of (1aR,7bS)-5-[2-(2-diethylamino-methylcyclopropyl)-4-

With `CCN(CC)CC1CC1c1cc(F)ccc1S(=O)(=O)Nc1ccc2c(c1C(=O)O)OC[C@@H]1C[C@H]21` (some centres unmarked) [Example 2] as the molecule, how does the IC50 read?
Its IC50 is < 50 nM.
